Laboratory results taken from patent US8952008B2, “Chemical compounds” (Pfizer Limited, priority 2012, dated 2015).
pKi: −log10 of the molar value.

Key:
[1] = target: GABRA2-GABRB2-GABRG2 chloride currents in HEK cells (Homo sapiens (Human), UniProt P18507+P47869); assay: QPatch electrophysiological recording, % enhancement of GABA current (α2 PAM); type: cell-based; settings: approximately EC10 GABA, −60 mV, whole-cell patch clamp
Method: Human Embryonic Kidney (HEK) cells were transfected with a GABRA2-GABRB2-GABRG2 construct using standard techniques.
For QPatch electrophysiology testing, cells were harvested from flasks by enzymatic dissociation and resuspended in serum-free medium. Cells were typically used for electrophysiological experiments within 24 to 72 hours after splitting.
(§1) Cell suspension containing HEK cells expressing GABRA2-GABRB2-GABRG2 was placed on the QPatch instrument in serum-free medium into the instrument's cell stirrer. The instrument washed the cells once using extracellular buffer and then dispensed them into the QPlate HT measurement plate at a concentration of 3-4-e6/ml. […] All recordings were made at room temperature (22-24° C.).
(§2) Current records were acquired at 1 KHz and filtered at 0.3 KHz using the Bessel filter. Series resistance compensation was set to 80% in the QPatch software.
(§3) All compounds were dissolved in dimethyl sulfoxide to make 30 mM or 10 mM stock solutions, which were then diluted to 1000 times the desired final concentration in dimethyl sulfoxide. These were diluted into extracellular solution to attain the final concentrations desired. […] This concentration of dimethyl sulfoxide was present in all samples.
(§4) Currents were recorded at −60 mV, using an approximately EC10 concentration of gamma-aminobutyric acid (GABA). This dose of gamma-aminobutyric acid was applied for 6 seconds and washed off using extracellular buffer as an unrecorded application using the pipetting system of the QPatch instrument. The same dose of gamma-aminobutyric acid was then applied for 9 seconds, then the test compound was co-applied with this dose of gamma-aminobutyric acid for 15 seconds, and washed off using the extracellular solution using the pipetting system of the QPatch instrument.
(§5) Compound effect (% enhancement of gamma-aminobutyric acid current) was calculated using the following formula: [((peak modulator current amplitude-leak)−(GABA current amplitude-leak))/(GABA current amplitude-leak)]*100, where ‘leak’ is leak current at −60 mV, ‘peak modulator current amplitude’ is the current elicited by co-application of gamma-aminobutyric acid and test compound, and ‘GABA current amplitude’ is the current elicited by application of gamma-aminobutyric acid alone.

[2] = target: GABRA1-GABRB3-GABRG2 chloride currents in HEK cells (Homo sapiens (Human), UniProt P14867+P18507); assay: QPatch electrophysiological recording, % enhancement of GABA current (α1 PAM); type: cell-based; settings: approximately EC10 GABA, −60 mV, whole-cell patch clamp
GABRA1-GABRB3-GABRG2 chloride currents in HEK cells, sequence (P14867 28-456): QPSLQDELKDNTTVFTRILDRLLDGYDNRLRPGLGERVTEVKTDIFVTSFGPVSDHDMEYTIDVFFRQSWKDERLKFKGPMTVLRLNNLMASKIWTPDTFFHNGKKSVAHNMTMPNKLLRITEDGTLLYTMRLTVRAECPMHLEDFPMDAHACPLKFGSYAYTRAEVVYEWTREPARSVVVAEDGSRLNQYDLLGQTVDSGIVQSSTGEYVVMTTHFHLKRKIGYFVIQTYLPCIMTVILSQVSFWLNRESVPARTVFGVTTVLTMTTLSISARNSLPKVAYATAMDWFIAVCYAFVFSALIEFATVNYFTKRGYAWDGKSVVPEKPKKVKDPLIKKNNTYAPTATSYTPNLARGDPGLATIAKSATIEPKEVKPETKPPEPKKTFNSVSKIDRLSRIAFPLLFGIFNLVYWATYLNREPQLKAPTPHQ
GABRA1-GABRB3-GABRG2 chloride currents in HEK cells, sequence (P28472 26-473 partner): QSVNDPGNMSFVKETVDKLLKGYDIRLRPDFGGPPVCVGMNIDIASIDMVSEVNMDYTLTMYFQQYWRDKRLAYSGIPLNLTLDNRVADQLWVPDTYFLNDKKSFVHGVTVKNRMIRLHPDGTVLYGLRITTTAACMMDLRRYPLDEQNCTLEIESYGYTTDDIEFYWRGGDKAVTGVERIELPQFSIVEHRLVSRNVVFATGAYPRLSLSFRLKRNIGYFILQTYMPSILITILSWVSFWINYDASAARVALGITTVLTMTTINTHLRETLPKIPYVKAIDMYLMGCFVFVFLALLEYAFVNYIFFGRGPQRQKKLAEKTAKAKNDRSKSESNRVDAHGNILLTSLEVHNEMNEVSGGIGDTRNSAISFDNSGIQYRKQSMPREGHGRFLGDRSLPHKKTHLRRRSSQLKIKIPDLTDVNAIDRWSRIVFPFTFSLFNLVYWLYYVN
GABRA1-GABRB3-GABRG2 chloride currents in HEK cells, sequence (P18507 40-475): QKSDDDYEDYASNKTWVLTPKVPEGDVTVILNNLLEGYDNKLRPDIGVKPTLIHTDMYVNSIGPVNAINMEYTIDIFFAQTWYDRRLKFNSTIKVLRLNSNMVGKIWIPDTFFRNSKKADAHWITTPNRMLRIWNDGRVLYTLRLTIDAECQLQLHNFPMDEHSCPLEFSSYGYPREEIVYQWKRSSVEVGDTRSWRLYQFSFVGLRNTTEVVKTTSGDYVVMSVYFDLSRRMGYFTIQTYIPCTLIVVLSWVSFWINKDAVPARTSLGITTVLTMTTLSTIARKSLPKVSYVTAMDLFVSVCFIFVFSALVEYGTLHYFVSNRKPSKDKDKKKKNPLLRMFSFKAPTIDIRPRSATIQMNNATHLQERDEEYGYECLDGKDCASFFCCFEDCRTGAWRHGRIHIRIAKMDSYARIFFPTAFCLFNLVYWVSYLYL
Method: as §1, §2, §3, §4, §5
The ability of the compounds of the formula (I) to modulate the GABA channels expressing the al subunit (or GABRA1) can also be measured using an assay analogous to that described above but replacing the GABRA2-GABRB2-GABRG2 gene construct with the GABRA1-GABRB3-GABRG2 gene construct. All other conditions remain the same including the same cell line and conditions for cell growth.

[3] = target: human recombinant GABA A receptor containing the alpha2, beta2, and gamma3 subunits (Homo sapiens, UniProt P47869+Q99928); assay: Radioligand competition binding assay with [3H]Ro-15-1788 (Flumazenil);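 note: membranes from HEK cells expressing the receptor, incubated with radioligand to equilibrium, filter-bound radioactivity counted, Ki reported as geometric mean of replicate runs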
Method: Membranes were prepared from HEK cells expressing hGABA A alpha2beta2-gamma3 receptor, and validated to ascertain protein concentration, receptor expression and to determine the Kd of the flumazenil as well as the Ki of a standard set of compounds before being used to test new compounds.
100 ul of radioligand and 100 ul of membrane in 50 mM Tris-HCl and 0.05% F127 with 1 ul of test compound was incubated for 2 hours to allow the reaction to achieve equilibrium, and then harvested onto filter plates, dried and counted on a TopCount NXT. The data was analysed, and the Ki values were presented as the geometric mean of at least two replicates.

GABRA2-GABRB2-GABRG2 chloride currents in HEK cells, sequence (P47869 29-451): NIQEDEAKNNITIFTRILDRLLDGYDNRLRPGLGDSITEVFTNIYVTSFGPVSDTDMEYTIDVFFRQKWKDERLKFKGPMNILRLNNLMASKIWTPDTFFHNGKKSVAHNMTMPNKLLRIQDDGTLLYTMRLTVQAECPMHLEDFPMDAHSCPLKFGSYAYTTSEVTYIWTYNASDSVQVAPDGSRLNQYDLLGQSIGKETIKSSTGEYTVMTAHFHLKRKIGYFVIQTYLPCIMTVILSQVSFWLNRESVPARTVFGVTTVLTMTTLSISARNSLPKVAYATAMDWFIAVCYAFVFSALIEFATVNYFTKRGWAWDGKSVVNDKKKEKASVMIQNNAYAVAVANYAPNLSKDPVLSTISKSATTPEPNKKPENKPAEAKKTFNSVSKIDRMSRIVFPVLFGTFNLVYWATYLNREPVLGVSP
GABRA2-GABRB2-GABRG2 chloride currents in HEK cells, sequence (P47870 26-512 partner): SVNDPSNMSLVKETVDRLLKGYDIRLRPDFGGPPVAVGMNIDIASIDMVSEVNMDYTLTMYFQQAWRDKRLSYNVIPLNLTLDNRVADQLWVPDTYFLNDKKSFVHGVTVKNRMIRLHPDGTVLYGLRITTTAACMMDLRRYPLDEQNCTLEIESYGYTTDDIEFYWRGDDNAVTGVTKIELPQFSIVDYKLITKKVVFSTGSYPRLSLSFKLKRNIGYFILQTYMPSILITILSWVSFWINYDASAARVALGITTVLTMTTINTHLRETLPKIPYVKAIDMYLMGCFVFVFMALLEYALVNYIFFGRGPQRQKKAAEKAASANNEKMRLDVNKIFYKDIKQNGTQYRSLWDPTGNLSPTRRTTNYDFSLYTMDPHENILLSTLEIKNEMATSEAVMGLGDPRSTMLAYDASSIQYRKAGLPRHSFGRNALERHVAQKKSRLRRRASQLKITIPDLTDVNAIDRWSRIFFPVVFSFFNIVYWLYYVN
GABRA2-GABRB2-GABRG2 chloride currents in HEK cells, sequence (P18507 40-475): as the sequence (P18507 40-475) above

| Compound | α2 PAM (%) [1] [%] | α1 PAM (%) [2] [%] | pKi [3] |
| --- | --- | --- | --- |
| CCn1cnc2c(-c3ccc(F)c(-c4ccc(S(C)(=O)=O)cc4F)c3)cnnc21 [Example 2, 4-[2′,6-Difluoro-4′-(methylsulfonyl)biphenyl-3-yl]-7-ethyl-7H-imidazo[4,5-c]pyridazine] | 1.69 | −4.67 | 7.96 |
| CCS(=O)(=O)c1ccc(-c2cc(-c3cnnc4c3ncn4C3CC3)ccc2F)cc1 [Example 19, 7-Cyclopropyl-4-[4′-(ethylsulfonyl)-6-fluorobiphenyl-3-yl]-7H-imidazo[4,5-c]pyridazine] | 84.3 | −6.17 | 7.51 |
| CS(=O)(=O)c1ccc(-c2cc(-c3cnnc4c3ncn4C3CC3)ccc2F)cc1 [Example 21, 7-Cyclopropyl-4-(6-fluoro-4′-(methylsulfonyl)biphenyl-3-yl)-7H-imidazo[4,5-c]pyridazine] | 31.6 | −5.78 | 7.36 |
| CCS(=O)(=O)c1ccc(-c2cc(-c3cnnc4c3ncn4C3CC3)ccc2F)c(C#N)c1 [Example 25, 5′-(7-Cyclopropyl-7H-imidazo[4,5-c]pyridazin-4-yl)-4-(ethylsulfonyl)-2′-fluoro-[1,1′-biphenyl]-2-carbonitrile] | 23.9 | −5.82 | 6.77 |
| CCS(=O)(=O)c1ccc(-c2cc(-c3cnnc4c3ncn4C(C)C)ccc2F)cc1 [Example 31, 4-[4′-(Ethylsulfonyl)-6-fluorobiphenyl-3-yl]-7-(propan-2-yl)-7H-imidazo[4,5-c]pyridazine] | 118 | 21.3 | 7.62 |
| CC(C)n1cnc2c(-c3ccc(F)c(-c4ccc(S(N)(=O)=O)cc4)c3)cnnc21 [Example 32, 2′-Fluoro-5′-(7-isopropyl-7H-imidazo[4,5-c]pyridazin-4-yl)biphenyl-4-sulfonamide] | 77.2 | −29.5 | 8.24 |
| CCS(=O)(=O)c1ccc(-c2cc(-c3cnnc4c3ncn4C(C)C)ccc2F)c(F)c1 [Example 34, 4-[4′-(Ethylsulfonyl)-2′,6-difluorobiphenyl-3-yl]-7-(propan-2-yl)-7H-imidazol[4,5-c]pyridazine] | 94.7 | 4.99 | 7.46 |
| COc1cc(S(C)(=O)=O)ccc1-c1cc(-c2cnnc3c2ncn3C(C)C)ccc1F [Example 38, 4-(6-Fluoro-2′-methoxy-4′-(methylsulfonyl)-[1,1′-biphenyl]-3-yl)-7-isopropyl-7H-imidazo[4,5-c]pyridazine] | 62.5 | 14.6 | 8.07 |
| CCS(=O)(=O)c1ccc(-c2cc(-c3cnnc4c3ncn4C(C)C)ccc2F)c(C#N)c1 [Example 41, 4-(Ethylsulfonyl)-2′-fluoro-5′-(7-isopropyl-7H-imidazo[4,5-c]pyridazin-4-yl)-[1,1′-biphenyl]-2-carbonitrile] | 81.3 | 14.9 | 7.54 |
| CCn1cnc2c(-c3ccc(O)c(-c4ccc(S(=O)(=O)CC)cc4OC)c3)cnnc21 [Example 48, 5-(7-Ethyl-7H-imidazo[4,5-c]pyridazin-4-yl)-4′-(ethylsulfonyl)-2′-methoxy-[1,1′-biphenyl]-2-ol] | 47.8 | −5.53 |  |

Continued by rising pKi [3], values first:

| α2 PAM (%) [1] [%] | α1 PAM (%) [2] [%] | pKi [3] | Compound |
| --- | --- | --- | --- |
| 173 | 69.4 | 7.00 | COc1cc(S(C)(=O)=O)ccc1-c1cc(-c2cnnc3c2ncn3C2CCC2)ccc1F [Example 29, 7-Cyclobutyl-4-(6-fluoro-2′-methoxy-4′-(methylsulfonyl)-[1,1′-biphenyl]-3-yl)-7H-imidazol[4,5-c]pyridazine] |
| 199 | 112 | 7.04 | COc1cc(S(C)(=O)=O)ccc1-c1cc(-c2cnnc3c2ncn3C2CCCC2)ccc1F [Example 42, 7-Cyclopentyl-4-(6-fluoro-2′-methoxy-4′-(methylsulfonyl)-[1,1′-biphenyl]-3-yl)-7H-imidazo[4,5-c]pyridazine] |
| 46.7 | −0.474 | 7.41 | CCn1cnc2c(-c3ccc(F)c(-c4ccc(S(=O)(=O)CC)cc4C#N)c3)cnnc21 [Example 11, 5′-(7-Ethyl-7H-imidazo[4,5-c]pyridazin-4-yl)-4-(ethylsulfonyl)-2′-fluoro-[1,1′-biphenyl]-2-carbonitrile] |
| 55.3 | −0.441 | 7.43 | COc1cc(S(C)(=O)=O)ccc1-c1cc(-c2cnnc3c2ncn3C2CC2)ccc1F [Example 24, 7-Cyclopropyl-4-(6-fluoro-2′-methoxy-4′-(methylsulfonyl)-[1,1′-biphenyl]-3-yl)-7H-imidazo[4,5-c]pyridazine] |
| 124 | 1.05 | 7.51 | CCn1cnc2c(-c3ccc(F)c(-c4ccc(S(=O)(=O)C(C)C)cc4)c3)cnnc21 [Example 1, 7-Ethyl-4-[6-fluoro-4′-(propan-2-ylsulfonyl)biphenyl-3-yl]-7H-imidazo[4,5-c]pyridazine] |
| 79.9 | −27.0 | 7.79 | CNS(=O)(=O)c1ccc(-c2cc(-c3cnnc4c3ncn4C(C)C)ccc2F)cc1 [Example 33, 2′-Fluoro-N-methyl-5′-[7-(propan-2-yl)-7H-imidazo[4,5-c]pyridazin-4-yl]biphenyl-4-sulfonamide] |
